Test results from patent publication US8044023B2, “Hepatitis C virus inhibitors” (Bristol-Myers Squibb Company, priority 2008, dated 2011).

Legend:
NS3/4A BMS Strain = NS3/4A BMS Strain (UniProt P27958); assay: HCV NS3/4A protease complex enzyme assay; type: biochemical, Hepatitis C virus
Experimental: (§1) HCV NS3/4A protease complex enzyme assays and cell-based HCV replicon assays can be utilized in the present disclosure, and can be prepared, conducted and validated as described in the art (see, for Example, WO 2008/064061).
(§2) Compound 1 was tested as described above and found to have an IC50 (NS3/4A BMS Strain) of 4 nM. The EC50 is 5 nM.

HCV replicon = assay: cell-based HCV replicon assay; conditions: Hepatitis C virus
Experimental: as §1, §2

Sequence of NS3/4A BMS Strain (P27958 1027-1657): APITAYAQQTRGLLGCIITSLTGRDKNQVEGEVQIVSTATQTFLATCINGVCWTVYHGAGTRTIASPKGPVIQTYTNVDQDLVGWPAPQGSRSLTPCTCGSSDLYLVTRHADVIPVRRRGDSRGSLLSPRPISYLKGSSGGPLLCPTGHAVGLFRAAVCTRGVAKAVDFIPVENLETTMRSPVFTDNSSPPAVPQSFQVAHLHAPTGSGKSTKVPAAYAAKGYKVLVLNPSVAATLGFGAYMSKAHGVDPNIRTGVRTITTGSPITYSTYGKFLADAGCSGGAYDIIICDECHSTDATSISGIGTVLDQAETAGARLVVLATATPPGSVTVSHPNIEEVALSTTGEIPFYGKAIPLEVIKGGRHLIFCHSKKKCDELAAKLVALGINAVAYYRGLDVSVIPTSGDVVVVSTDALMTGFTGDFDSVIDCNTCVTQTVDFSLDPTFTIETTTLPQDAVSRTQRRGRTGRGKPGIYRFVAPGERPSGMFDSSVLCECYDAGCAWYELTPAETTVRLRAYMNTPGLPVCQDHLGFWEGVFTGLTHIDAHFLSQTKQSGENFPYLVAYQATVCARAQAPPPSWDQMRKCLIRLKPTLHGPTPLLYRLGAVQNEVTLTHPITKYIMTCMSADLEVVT

## CCCCS[C@@]1(c2ccc(-c3ccccc3)cc2)C[C@H]2C(=O)N[C@]3(C(=O)NS(=O)(=O)C4CC4)C[C@H]3/C=C\CCCCC[C@H](NC(=O)OC(C)(C)C)C(=O)N2C1 [Compound 1, tert-butyl (2R,6S,13aS,14aR,16aS,Z)-2-(biphenyl-4-yl)-2-(butylthio)-14a-(cyclopropylsulfonylcarbamoyl)-5,16-dioxo-1,2,3,5,6,7,8,9,10,11,13a,14,14a,15,16,16a-hexadecahydrocyclopropa[e]pyrrolo[1,2-a][1,4]diazacyclopentadecin-6-ylcarbamate]
NS3/4A BMS Strain
  IC50: 4 nM
HCV replicon
  EC50: 5 nM
